Counter-ions that a name gives are not always drawn.
What was measured:
[1] = Acute toxicity in mice, intraperitoneal (Table I); settings: mouse, in vivo, ip, suspension in carboxymethylcellulose, observed one week
Excerpt: The results are in Table I.

[2] = test system: carotidine arterial pressure; experiment: Hypotensive activity in anesthetized rats, intravenous (Table II); assay type: in vivo, male rats of the Sprague-Dawley SPF strain; settings: for % Variation in pressure: compared to initial carotid arterial pressure; for Duration of Activity: time for pressure to return to initial value
Method: The hypotensive activity was determined on male rats of the Sprague-Dawley SPF strain weighing about 300 g which had been anestesized with nembutal (50 mg/kg intraveinously). The product was administered intraveinously by the jugular vein and the carotidine arterial pressure was measured before and after the administration of the test product. Table II reports the variations expressed in percent of arterial pressure after administration of the test product as compared to the initial arterial pressure as well as the time necessary for the pressure to return to the initial value.

[3] = test system: arterial pressure measured at the rat's tail; experiment: Antihypertensive activity in spontaneous hypertensive rats, oral (Table III); assay type: in vivo, spontaneous hypertendus male rats of the Okamoto strain
Method: The antihypertensive activity was determined on spontaneous hypertendus male rats of the Okamoto strain 8 weeks old and the test products were orally administered daily for 9 days. The arterial pressure was measured at the rat's tail by means of a pneumatic collar connected to an electronic transducer of pressure.

[4] = daily dose 50 mg/kg oral, 1st Day, 1 hr after 1st ad.
[5] = daily dose 50 mg/kg oral, 1st Day, 4 hr. after

| Compound | LD50 at 168 h [1] [mg/kg] | % Variation in pressure ([2]; 1 mg/kg) [%] | Duration of Activity ([2]; 1 mg/kg) [min] | % Pressure variation [3, 4] [%] | % Pressure variation [3, 5] [%] | also measured |
| --- | --- | --- | --- | --- | --- | --- |
| OC(CN1CCC(c2c[nH]c3ccccc23)CC1)C1COc2ccccc2O1 (racemic) [Example 1, (d,l) erythro α-(2,3-dihydro-1,4-benzodioxin-2-yl)-4-([1H]-indol-3-yl)-1-piperidine-ethanol hydrochloride] | ~100 | -25 | 45 | -11 | -12 | % Variation in pressure ([2]; 0.1 mg/kg): -10%; Duration of Activity ([2]; 0.1 mg/kg): 30 min; % Pressure variation ([3]; daily dose 50 mg/kg oral for 9 days, 10th Day, 24 hr. after 1st ad. (so in the source)): -15% |
| COc1ccc2[nH]cc(C3CCN(CC(O)C4COc5ccccc5O4)CC3)c2c1 (single isomer, unassigned) [Example 2 isomer A, isomer A of (dl) α-(2,3-dihydro-1,4-benzodioxin-2-yl)-4-(5-methoxy-[1H]-indol-3-yl)-1-piperidine-ethanol] | ~500 | – | 60 | – | – | % Variation in pressure ([2]; 1 mg/kg, listed as 2 isomer A): -14% |
| COc1ccc2[nH]cc(C3CCN(CC(O)C4COc5ccccc5O4)CC3)c2c1 (single isomer, unassigned) [Example 2 isomer B, isomer B of (dl) α-(2,3-dihydro-1,4-benzodioxin-2-yl)-4-(5-methoxy-[1H]-indol-3-yl)-1-piperidine-ethanol] | – | – | 60 | – | – | % Variation in pressure ([2]; 1 mg/kg, listed as 2 isomer B): -20% |
| COc1ccc2c(C3CCN(CC(O)C4COc5ccccc5O4)CC3)c(C)[nH]c2c1.Cl (stereo not drawn) [Example 3, α-(2,3-dihydro-1,4-benzodioxin-2-yl)-4-(6-methoxy-2-methyl-[1H]-indol-3-yl)-1-piperidine-ethanol hydrochloride] | – | – | 60 | -26 | -27 | % Variation in pressure ([2]; 10 mg/kg): -25%; Duration of Activity ([2]; 10 mg/kg): 60 min |
| OC(CN1CC=C(c2c[nH]c3ccccc23)CC1)C1COc2ccccc2O1 (stereo not drawn) [Example 4, α-(2,3-dihydro-1,4-benzodioxin-2-yl)-4-([1H]-indol-3-yl)-1,2,3,6-tetrahydro-1-pyridine-ethanol] | – | – | – | -10 | -18 | – |
| Cn1cc(C2CCN(CC(O)C3COc4ccccc4O3)CC2)c2ccccc21 (stereo not drawn) [Example 5, α-(2,3-dihydro-1,4-benzodioxin-2-yl)-4-(1-methyl-[1H]-indol-3-yl)-1-piperidine-ethanol] | ~250 | -10 | 30 | – | – | – |
